Earlier results as cited in patent publication US20220267753A1, “RATIONAL THERAPEUTIC TARGETING OF ONCOGENIC IMMUNE SIGNALING STATES IN MYELOID MALIGNANCIES VIA THE UBIQUITIN CONJUGATING ENZYME UBE2N” (CHILDREN'S HOSPITAL MEDICAL CENTER, priority 2019, published 2022).

Target: T1, UBE2N (Homo sapiens, UniProt P61088)
T1 sequence (P61088 1-152): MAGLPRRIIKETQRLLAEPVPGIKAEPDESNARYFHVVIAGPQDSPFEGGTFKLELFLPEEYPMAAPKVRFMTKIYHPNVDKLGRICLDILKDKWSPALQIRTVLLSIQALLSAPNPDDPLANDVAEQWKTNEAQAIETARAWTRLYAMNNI
Conditions: cited from earlier work; for inhibition of UBE2N by covalent reaction with Cys-87: reference [16]; for selectivity among cysteine-containing ubiquitin enzymes: references [23-25]

SMILES | inhibition of UBE2N by covalent reaction with Cys-87 | selectivity among cysteine-containing ubiquitin enzymes
Cc1ccc(S(=O)(=O)/C=C/C#N)cc1 [BAY11-7082] | irreversible inhibition of UBE2N | non-selective inhibitors
Cc1ccc(S(=O)(=O)c2ccc([N+](=O)[O-])o2)cc1 [NSC697923, 2-(4-methylphenyl)sulfonyl-5-nitrofuran] | irreversible inhibition of UBE2N | non-selective inhibitors
